In patent US9061028B2, “Process for the preparation of Nilotinib” (Natco Pharma Limited, priority 2012, dated 2015):
Counter-ions that a name gives are not always drawn.

Tests used:
[1] = Thermal stability of polymorph form on heating at 60-70° C., examined by XRPD; format: physicochemical; conditions: for Polymorph form detected after heating: oil bath 60-70° C., XRPD
[2] = Polymorph stability under accelerated stress conditions (40±2° C., 75±5% RH), by XRD; format: physicochemical; conditions: accelerated high humidity stress conditions

With `Cc1cn(-c2cc(NC(=O)c3ccc(C)c(Nc4nccc(-c5cccnc5)n4)c3)cc(C(F)(F)F)c2)cn1` [Nilotinib hydrochloride] the Hygroscopicity (40° C./75% RH) was “non-hygroscopic”, the “Final moisture content after 60 days 40° C. at humidity of 75%” value (60 days, 40° C./75% RH, karl-fischer) was 5.2% and the “Initial moisture Content (%)” value (before storage, karl-fischer) was 5.26%. For the same compound, the Stability to heat ([1]; 70° C./40 hours) was “stable to heat”, the “Polymorph form detected after heating” value ([1]; time of heating 10 hours) was “XRD pattern unchanged” and the “Polymorph form detected after heating” value ([1]; time of heating 20 hours) was “XRD pattern unchanged”. The “Polymorph form detected after heating” value ([1]; time of heating 30 hours) was “XRD pattern unchanged”, the “Polymorph form detected after heating” value ([1]; time of heating 40 hours) was “XRD pattern unchanged” and the “XRD spectra after storage” value [2] was “essentially the same and unchanged”.
